Experimental data as given in patent publication US10787447B2, “Pharmaceutical compounds” (Heptares Therapeutics Limited, priority 2018, dated 2020).
pEC50: −log10 of the molar value.

Legend:
Type in all cases: cell-based
[1] = target: T1, human muscarinic M1 receptor (Homo sapiens, UniProt P11229); test: Alphascreen Surefire phospho-ERK1/2 functional assay, M1; details: for % Emax cf. ACh, M1: CHO cells stably expressing human M1, Emax relative to ACh; for pEC50: pEC50 M1, CHO cells stably expressing human M1, phospho-ERK1/2
T1 sequence (P11229 1-460): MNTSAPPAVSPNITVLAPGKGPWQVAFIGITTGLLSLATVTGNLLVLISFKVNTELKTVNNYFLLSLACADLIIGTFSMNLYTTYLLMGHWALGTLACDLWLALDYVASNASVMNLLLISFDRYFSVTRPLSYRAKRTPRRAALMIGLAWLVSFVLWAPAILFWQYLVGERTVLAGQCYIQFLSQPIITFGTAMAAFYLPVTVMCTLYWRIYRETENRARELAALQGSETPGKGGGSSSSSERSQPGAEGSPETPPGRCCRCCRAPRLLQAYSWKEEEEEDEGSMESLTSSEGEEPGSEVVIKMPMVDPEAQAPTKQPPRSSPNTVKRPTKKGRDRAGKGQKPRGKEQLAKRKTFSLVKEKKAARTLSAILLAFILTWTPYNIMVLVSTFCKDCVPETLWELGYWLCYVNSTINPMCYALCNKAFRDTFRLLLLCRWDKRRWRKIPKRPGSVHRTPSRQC
How it was run: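 Stably transfected CHO cells, serum-starved overnight, then exposed to agonist for 5 min at 37 °C. Cells lysed and phospho-ERK1/2 measured by AlphaScreen SureFire.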

[2] = target: T2, human muscarinic M2 receptor (Homo sapiens, UniProt P08172); test: Alphascreen Surefire phospho-ERK1/2 functional assay, M2; details: for % Emax cf. ACh, M2: CHO cells stably expressing human M2, Emax relative to ACh; for pEC50: pEC50 M2, CHO cells stably expressing human M2, phospho-ERK1/2
T2 sequence (P08172 1-466): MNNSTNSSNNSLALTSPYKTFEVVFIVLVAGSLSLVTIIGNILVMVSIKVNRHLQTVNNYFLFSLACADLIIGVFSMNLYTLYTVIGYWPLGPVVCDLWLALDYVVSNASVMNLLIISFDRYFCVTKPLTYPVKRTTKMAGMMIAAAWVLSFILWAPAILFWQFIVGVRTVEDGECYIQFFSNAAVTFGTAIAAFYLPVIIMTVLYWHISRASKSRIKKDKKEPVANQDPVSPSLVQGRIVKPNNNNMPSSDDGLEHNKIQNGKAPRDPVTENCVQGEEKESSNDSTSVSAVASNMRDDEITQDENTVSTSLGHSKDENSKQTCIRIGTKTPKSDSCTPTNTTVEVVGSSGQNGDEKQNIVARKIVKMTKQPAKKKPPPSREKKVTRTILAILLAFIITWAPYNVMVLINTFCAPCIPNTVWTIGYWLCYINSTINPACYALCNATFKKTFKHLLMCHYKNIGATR
How it was run: (§1)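 CHO cells stably expressing human M1, M2, M3 or M4 receptor, serum-starved overnight, then stimulated with agonist for 5 min at 37 °C. Cells lysed for 15 min and phospho-ERK1/2 detected in the lysate by AlphaScreen SureFire.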

[3] = target: T3, human muscarinic M3 receptor (Homo sapiens, UniProt P20309); test: Alphascreen Surefire phospho-ERK1/2 functional assay, M3; details: for % Emax cf. ACh, M3: CHO cells stably expressing human M3, Emax relative to ACh; for pEC50: pEC50 M3, CHO cells stably expressing human M3, phospho-ERK1/2
T3 construct: expressed in transfected cells
How it was run: as §1

[4] = target: T4, human muscarinic M4 receptor (Homo sapiens, UniProt P08173); test: Alphascreen Surefire phospho-ERK1/2 functional assay, M4; details: for % Emax cf. ACh, M4: CHO cells stably expressing human M4, Emax relative to ACh; for pEC50: pEC50 M4, CHO cells stably expressing human M4, phospho-ERK1/2
T4 sequence (P08173 1-479): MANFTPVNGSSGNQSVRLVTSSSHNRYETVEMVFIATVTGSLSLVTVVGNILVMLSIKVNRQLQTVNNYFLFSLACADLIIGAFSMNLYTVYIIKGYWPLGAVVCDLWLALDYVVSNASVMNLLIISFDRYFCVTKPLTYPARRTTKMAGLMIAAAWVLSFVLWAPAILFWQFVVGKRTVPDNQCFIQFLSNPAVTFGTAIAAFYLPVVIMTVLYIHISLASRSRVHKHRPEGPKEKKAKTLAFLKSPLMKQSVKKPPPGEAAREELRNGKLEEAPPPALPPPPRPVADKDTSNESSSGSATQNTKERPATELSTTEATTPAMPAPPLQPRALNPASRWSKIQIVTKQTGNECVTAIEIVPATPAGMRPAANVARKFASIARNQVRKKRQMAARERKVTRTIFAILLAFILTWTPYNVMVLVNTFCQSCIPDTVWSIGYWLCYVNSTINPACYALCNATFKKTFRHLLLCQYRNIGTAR
How it was run: as §1

T3 sequence (P20309 whole entry): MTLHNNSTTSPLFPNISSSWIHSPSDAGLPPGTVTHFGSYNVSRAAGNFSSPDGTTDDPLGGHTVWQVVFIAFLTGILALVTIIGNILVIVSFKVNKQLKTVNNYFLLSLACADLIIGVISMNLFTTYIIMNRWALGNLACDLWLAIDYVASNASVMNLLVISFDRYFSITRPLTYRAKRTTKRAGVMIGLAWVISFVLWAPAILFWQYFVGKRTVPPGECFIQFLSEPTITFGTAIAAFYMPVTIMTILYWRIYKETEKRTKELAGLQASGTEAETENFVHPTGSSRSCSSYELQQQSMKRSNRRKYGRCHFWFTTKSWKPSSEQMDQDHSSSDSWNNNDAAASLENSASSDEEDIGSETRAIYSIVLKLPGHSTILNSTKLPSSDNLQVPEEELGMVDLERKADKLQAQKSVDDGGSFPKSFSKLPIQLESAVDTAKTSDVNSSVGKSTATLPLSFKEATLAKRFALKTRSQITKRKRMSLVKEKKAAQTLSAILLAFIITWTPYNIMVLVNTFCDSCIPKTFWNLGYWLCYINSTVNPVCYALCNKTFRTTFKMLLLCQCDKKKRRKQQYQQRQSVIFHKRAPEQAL

SMILES | % Emax cf. ACh, M1 ([1]; listed as 1-3 Isomer 2) [%] | pEC50 [1] | % Emax cf. ACh, M2 ([2]; listed as 1-3 Isomer 2) [%] | pEC50 [2] | % Emax cf. ACh, M3 ([3]; listed as 1-3 Isomer 2) [%] | pEC50 [3] | % Emax cf. ACh, M4 [4] [%] | pEC50 [4] | % Emax cf. ACh, M1 ([1]; listed as 2-3 Isomer 2) [%] | % Emax cf. ACh, M2 ([2]; listed as 2-3 Isomer 2) [%] | % Emax cf. ACh, M3 [3] [%] | % Emax cf. ACh, M4 ([4]; listed as 2-3 Isomer 2) [%] | % Emax cf. ACh, M1 ([1]; listed as 6-3 Isomer 1) [%] | % Emax cf. ACh, M2 ([2]; listed as 6-3 Isomer 1) [%] | % Emax cf. ACh, M3 ([3]; listed as 6-3 Isomer 1) [%] | % Emax cf. ACh, M4 ([4]; listed as 6-3 Isomer 1) [%]
CCOC(=O)N1C2COCC1CC(N1CCC(n3cc(C)cn3)CC1)C2 (single isomer, unassigned) [Example 1-3 Isomer 2, Ethyl 7-[4-(4-methyl-1H-pyrazol-1-yl)piperidin-1-yl]-3-oxa-9-azabicyclo[3.3.1]nonane-9-carboxylate] | 45 | 6.50 | 11 | < 4.70 | 5 | < 4.70 | 81 | 6.95 | – | – | – | – | – | – | – | –
CCOC(=O)N1C2COCC1CC(N1CCC(c3ccc[nH]c3=O)CC1)C2 (single isomer, unassigned) [Example 2-3 Isomer 2, Ethyl 7-[4-(2-oxo-1,2-dihydropyridin-3-yl)piperidin-1-yl]-3-oxa-9-azabicyclo[3.3.1]nonane-9-carboxylate] | – | 6.76 | – | < 4.70 | – | – | – | 7.94 | 34 | 10 | 5 | 65 | – | – | – | –
CCOC(=O)N1C2COCC1CC(N1CCC(N(CC3(C)CC3)C(C)=O)CC1)C2 (single isomer, unassigned) [Example 6-3 Isomer 1, Ethyl 7-(4-{acetyl[(1-methylcyclopropyl)methyl]amino}piperidin-1-yl)-3-oxa-9-azabicyclo[3.3.1]nonane-9-carboxylate] | – | 6.92 | – | 6.45 | – | < 4.70 | – | 7.22 | – | – | – | – | 124 | 36 | 390 | 93
